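Interpolation was linear, between the two tested concentrations surrounding the appropriate level; five concentrations were tested over 48 hours in 96-well plates. Definition used: TGI = concentration required for complete inhibition of growth.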
Key:
Experiment in all cases: growth of human tumour cells (NCI), 48 h
CAKI-1 renal = tested on: CAKI-1 renal
COLO 205 colon = tested on: COLO 205 colon
DU-145 prostate = tested on: DU-145 prostate
EKVX NSCLC = tested on: EKVX NSCLC
HCC-2998 colon = tested on: HCC-2998 colon
KM12 colon = tested on: KM12 colon
MDA-MB-231 breast = tested on: MDA-MB-231 breast
MDA-N = tested on: MDA-N
OVCAR-4 ovarian = tested on: OVCAR-4 ovarian
SK-MEL-28 melanoma = tested on: SK-MEL-28 melanoma
SNB-19 CNS = tested on: SNB-19 CNS
SW-620 colon = tested on: SW-620 colon
TK-10 renal = tested on: TK-10 renal
UACC-62 melanoma = tested on: UACC-62 melanoma
HT29 colon = tested on: HT29 colon
MALME-3M melanoma = tested on: MALME-3M melanoma
NCI-H23 lung = tested on: NCI-H23 lung
OVCAR-8 ovarian = tested on: OVCAR-8 ovarian
RPMI-8226 leukemia = tested on: RPMI-8226 leukemia
SF-539 CNS = tested on: SF-539 CNS

Compound | TGI (CAKI-1 renal) [µM] | TGI (COLO 205 colon) [µM] | TGI (DU-145 prostate) [µM] | TGI (EKVX NSCLC) [µM] | TGI (HCC-2998 colon) [µM] | TGI (KM12 colon) [µM] | TGI (MDA-MB-231 breast) [µM] | TGI (MDA-N) [µM] | TGI (OVCAR-4 ovarian) [µM] | TGI (SK-MEL-28 melanoma) [µM] | TGI (SNB-19 CNS) [µM] | TGI (SW-620 colon) [µM] | TGI (TK-10 renal) [µM] | TGI (UACC-62 melanoma) [µM] | TGI (HT29 colon) [µM] | TGI (MALME-3M melanoma) [µM] | TGI (NCI-H23 lung) [µM] | TGI (OVCAR-8 ovarian) [µM] | TGI (RPMI-8226 leukemia) [µM] | TGI (SF-539 CNS) [µM]
CC1(C)[C@@H](Cn2cc(I)c(=O)[nH]c2=O)CC[C@@]1(C)CO | > 100 | > 100 | > 100 | > 100 | > 100 | > 100 | > 100 | > 100 | > 100 | > 100 | > 100 | > 100 | > 100 | > 100 |  |  |  |  |  | 
COc1cccc(-c2cc(=O)c3cc(N4CCCCC4)ccc3[nH]2)c1 | > 100 |  | > 100 | > 100 |  | 0.783 | > 100 |  | > 57.9 | > 100 | > 100 | > 100 | > 100 | > 100 | 0.0316 | > 100 | > 20.4 | > 100 | > 100 | 0.0139
CCOC(=O)C(=[N+]=[N-])C(=O)CN1C(=O)c2ccccc2C1=O | > 100 | > 100 | > 100 | > 100 | > 100 |  | > 100 | > 100 | > 100 | > 100 | > 100 | > 100 | > 100 | > 100 | > 100 |  | > 100 | > 100 |  | > 100
CNC(=O)NCCCC(NC(C)=O)C(=O)NCc1ccccc1 (stereo not given) | > 100 | > 100 |  | > 100 | > 100 | > 100 |  |  | > 100 | > 100 | > 100 | > 100 | > 100 | > 100 | > 100 | > 100 | > 100 | > 100 | > 100 | > 100
O=C1c2cccc3cc([N+](=O)[O-])cc(c23)C(=O)N1Nc1ccc([N+](=O)[O-])cc1[N+](=O)[O-] | > 31.6 | 18.3 | > 46.4 | > 46.4 | 29.2 | 26.3 | 42.9 |  | > 46.4 | 18 | 38.9 | 25.3 | > 46.4 | 24.5 | 24.2 | > 31.6 | 35.7 | 21 | > 31.6 | > 31.6
Cc1cc(OC(=O)Nc2cccc3ccccc23)c(C(C)C)cc1C(=S)Nc1ccccc1 | 54.7 | 39.4 | 82 | 61.6 | 38.8 | 36.4 |  | 33.3 | 35 | 35.3 | 71.3 | 43.3 |  | 26.5 | 35.8 | 36.8 | 34.3 | 28.8 | 75.8 | 36.9
COc1cc2c(/C=C3/C(=O)Nc4cccc(Cl)c43)c(Cl)[nH]c2cc1C | 7.3 | 4.1 | 5.66 |  |  | 3.72 | 3.2 |  | 3.48 | 4.27 | 7.13 | 5.25 | 3.58 | 4.21 | 3.96 |  | 9.36 | 11.8 | 4.69 | 3.38
O=S(=O)(O)c1cc(N=Nc2c(O)ccc3ccccc23)cc2c(S(=O)(=O)O)cccc12 | > 100 | > 100 |  | > 100 | > 100 | > 100 | > 100 |  | > 100 | > 100 | > 100 | > 100 | > 100 | > 100 | > 100 | > 100 |  | > 100 | > 100 | > 100
COc1cc(C2C(Cl)C(=O)N2n2cnc3ccccc3c2=O)ccc1O (stereo not given) | > 100 | > 100 |  | > 100 | > 100 | > 100 |  |  | > 100 | > 100 | > 100 | > 100 | > 100 | > 100 | > 100 | > 100 | > 100 | > 100 | > 100 | 
CON(C)C(=O)C(C)N(Cc1ccccc1)Cc1ccccc1 (stereo not given) |  |  | > 100 | > 100 | > 100 | > 100 |  | > 100 |  | > 100 | > 100 | > 100 | > 100 | > 100 | > 100 | > 100 | > 100 | > 100 | > 100 | > 100
N#Cc1cccc(-n2[nH]c(=O)ccc2=O)c1 | > 100 | > 100 |  |  | > 100 | > 100 |  |  | > 100 | > 100 | > 100 | > 100 | > 100 | > 100 | > 100 | > 100 | > 100 | > 100 | > 100 | > 100
CCCC/C=C/C=C/C=C/CCCCCCCC(=O)OCC(COC(=O)CCCCCCC/C=C/C1C=CC(CCCC)C(C(=O)O)C1C(=O)O)OC(=O)CCCCCCC/C=C/C=C/C=C/CCCC (stereo not given) (tested in a mixture with another compound) | 76.1 | 29.3 |  | 43.4 | 40.7 | 34.6 |  |  | 34.7 | 33.3 | 46.1 | 18 | 37.7 | 29.1 | 35.3 | 35.8 | 40.3 | 44.5 | 15 | 39.1
Nc1nc(Cl)cc(OCC2(CO)CC=CC2)n1 |  |  | > 100 | > 100 | > 100 |  |  | > 100 | > 100 | > 100 | > 100 | > 100 | > 100 |  | > 100 | > 100 | > 100 | > 100 | > 100 | > 100
